“And” between values parts separate entries of the source, which are not always exact repeats. Equal values may be shown once.
Tests used:
[1] = tested on: wild type P. aeruginosa (PAO1; K2732); assay: Bacterial cytological profiling at pH 4, 5.5, 7 (Example 7), P. aeruginosa; format: cell-based; conditions: pH 7, 225 mg/mL
Description: This bacterial cytological profiling (BCP) investigation uses methods and materials described previously by Nonejuie, P., Burkart, M., Poglianoa, K., Pogiano, J. (2013). Bacterial cytological profiling rapidly identifies the cellular pathways targeted by antibacterial molecules. Proc. Natl. Acad. Sci. U.S.A. 110(40):16169-16174. doi: 10.1073/pnas.1311066110.
For viable cell counts, cells are grown to OD600≈0.4 and diluted 1:1 into buffered or unbuffered media containing various compound concentrations. Samples are then collected and serially diluted (1:10) on a 96 well plate. Five microliters from each well are spotted on LB plates, incubated at 30° C., and viable cells are counted the next day.
Samples are collected at 10, 30, 120, and 240 min of exposure for viable cell count and imaging. For imaging, E. coli and S. aureus 200 μL of treated cells per time point are stained with 0.8 μg/mL FM4-64, 1.5 μg/mL DAPI, and 0.4 μM SYTOXGreen (Molecular Probes/Invitrogen). P. aeruginosa samples are stained 0.4 μM SYTOX Green, 28 μg/mL DAPI, and 1 μg/mL FM 4-64. Cells are transferred to an agarose pad (20% LB, 1% agarose) for imaging.
For Nu-3 and Nu-8 stocks (at pH 4, 5.5 and 7), stock concentration is 500 mg/mL. For pH 4, the stocks are prepared by dissolving Nu-3 in 25 mM citrate buffer and Nu-8 in 350 mM citric acid. […]

Haemophilus influenzae = assay: MIC at pH 3.5, CLSI, Mueller-Hinton broth; format: cell-based; conditions: 5 isolates
[2] = tested on: Pseudomonas aeruginosa (ATCC27853); assay: Neutropenic lung infection model in mice, aerosol treatment (Example 23); format: in vivo, BALB/c mice; conditions: for Mean ± SD (Log10 CFU/g lung) / Log10 CFU/g lung: 10% aerosol, 40 min, 24 h PI; for Log10 CFU/g lung: individual mice
Description: Neutropenic, BALB/c female mice, all of which were from 6 to 8 weeks of age, were infected intranasally with Pseudomonas aeruginosa (ATCC27853). Twenty-four hours post infection; animals were treated intra-nasally by nebulization with Nu-8 (10% nebulized for twenty minutes, twice). At two, four and six hours post treatment, animals were terminated; lung tissues were collected to determine the bacterial load.
The mice were separated into cohorts in accordance with Table 11.
On day −4 (four days before the date of infection), each mouse was dosed with a single intraperitoneal injection of cyclophosphamide equivalent to 150 mg/kg and returned to its cage. On day −1 (one day before infection) each mouse received a dose equivalent to 100 mg/kg of cyclophosphamide.
On day −1, an aliquot from glycerol stocks of P. aeruginosa (ATCC27853) was thawed, inoculated into fresh Casein Soybean Digest Broth (CSDB) and incubated overnight at 37 C.
On the day of infection (Day 0), the overnight culture was centrifuged and the cells were pelleted and resuspended in sterile normal saline to obtain approximately 10^9 CFU/ml P. aeruginosa, which was used for infection. The inoculum was serially diluted ten-fold in sterile CSDB broth and 0.05 ml of six dilutions was plated onto CSD Agar plates to determine the viable count (CFU/ml) of inoculum.
Animals were divided into different groups as specified in the experimental design (TABLE 11). Infections were conducted in a biological safety cabinet, with appropriate personnel protection. Mice were placed into an induction chamber and anesthesia was induced by exposing the animals to 3%-5% Isoflurane in an oxygen flow set at approximately 1 liter per minute (LPM). Once the animals were in a sufficiently deep plane of anesthesia, they were removed and infected. Infection was done by instilling 0.02 ml (containing ˜1×10^9 CFU/ml) intra-nasally. 10 μl was instilled into each nostril of the anesthetized animal (˜2×10^7 CFU/animal). A gentle shaking/mixing of inoculum between two animals was followed for uniform distribution.
The vehicle used for the test compound was saline (0.9% NaCl adjusted to pH 3.5 with citric acid). To make 10% solution, 15 g Nu-8 was weighed and dissolved in 145 ml of the saline and the pH of the solution was adjusted to 3.5 with citric acid (0.1 M) in a final volume of 150 ml.
Treatment was initiated twenty four hours post infection. Test formulations were administered by aerosol route with nose only apparatus connected to a nebulizer (Omron Ne-C28 Compressor Nebulizer with a volume capacity of 15 ml, Particle size 3 μm, nebulization rate: 0.5 ml/min, and Aerosol output rate: 0.09 ml/min. At the given aerosol output rate of 0.09 ml/min, a total of 6 animals at the port, each animal will receive 15 μl/min. In 40 min, a total of 60 mg in 600 μl will be delivered to each animal). The formulation prepared previously was placed into the nebulizer fluid cup; animals were placed in the nose only apparatus and the entire system was placed inside a Class II Biosafety Cabinet. Animals received nebulization for 20 min, followed by a 30-minute rest and then an additional 20-minute exposure at the same dose concentration (the flow rate and percentage of test material available at the inhalation port was 16% of the initial concentration in the nebulizer if the test compound is in solution).
Groups of animals were euthanized at 2, 4 and 6 hours post treatment, as specified in experimental design, by an overdose of CO2 in an appropriate exposure chamber.
The euthanized animals were dipped into 70% ethanol for surface decontamination. Lungs were aseptically excised, weighed, placed in a 2 ml centrifuge tube containing 1 ml of sterile CSDB broth, and homogenized (Omni Tip (220THB handheld)). Serial ten-fold dilutions of the lung homogenates were prepared in sterile CSDB broth and 0.05 ml of four dilutions for each lung was plated onto CSDA agar plates. […]

CCCCOP(=O)(O)OC[C@H]1O[C@@H](n2ccc(N)nc2=O)C[C@@H]1OP(=O)(O)OCCCC [Nu-8, sodium ((2R,3S,5R)-5-(4-amino-2-oxopyrimidin-1(2H)-yl)-3-((butoxyoxidophosphor-yl)oxy)tetrahydrofuran-2-yl)methyl butyl phosphate]
cell growth [1]: slightly lower than that at pH 7 alone
cell permeability ([1]; 10 min, not persistent): ~37%
Nu-8 MIC (mg/mL) at pH 3.5 (Haemophilus influenzae): 4.69-9.38 mg/mL
Mean ± SD (Log10 CFU/g lung) ([2]; 2 h post end of treatment): 4.92 ± 0.19 Log10 CFU/g lung
Log10 CFU/g lung ([2]; 2 h post end of treatment): 4.89 Log10 CFU/g lung and 4.76 Log10 CFU/g lung and 4.94 Log10 CFU/g lung and 4.98 Log10 CFU/g lung and 5.24 Log10 CFU/g lung and 4.70 Log10 CFU/g lung
Mean ± SD (Log10 CFU/g lung) ([2]; 4 h post end of treatment): 4.82 ± 0.26 Log10 CFU/g lung
Log10 CFU/g lung ([2]; 4 h post end of treatment): 4.51 Log10 CFU/g lung and 5.20 Log10 CFU/g lung and 5.02 Log10 CFU/g lung and 4.64 Log10 CFU/g lung (2×) and 4.88 Log10 CFU/g lung
Mean ± SD (Log10 CFU/g lung) ([2]; 6 h post end of treatment): 4.68 ± 0.26 Log10 CFU/g lung
Log10 CFU/g lung ([2]; 6 h post end of treatment): 4.58 Log10 CFU/g lung and 4.53 Log10 CFU/g lung and 5.16 Log10 CFU/g lung and 4.41 Log10 CFU/g lung and 4.60 Log10 CFU/g lung and 4.78 Log10 CFU/g lung
antibacterial activity vs vehicle control at 2 h and 4 h ([2]; 10%, 2, 4 and 6 hours post administration, p<0.05): significant antibacterial activity
animal condition during the study period ([2]; all groups): no abnormalities were detected

From patent US12030908B2, “Antimicrobial compounds, compositions, and uses thereof” (Lakewood Amedex, Inc., priority 2017, dated 2024)
